From patent US20260001898A1, “Heteroaryl compounds as inhibitors of TYK2/JAK1, composition and application thereof” (Accro Bioscience (HK) Limited, priority 2022, published 2026)

System: IFNα induced TYK2/JAK1 mediated STAT activation
Assay: Luciferase assay in L929 ISRE cells stimulated with IFN-α
Assay type: cell-based
Details: Mus musculus, IFN-α 100 ng/mL; for inhibition at 0.05 µM: 50 nM compound, read-out: Inhibitory activity % (50 nM); for inhibition at 0.2 µM: 200 nM compound, read-out: Inhibitory activity % (200 nM); for inhibition at 1 µM: 1000 nM compound, read-out: Inhibitory activity % (1000 nM)
Procedure: • 1. L929 ISRE cells (5000 cells/well) were seeded on 96-well plates and incubated overnight at room temperature-; • 2. The cells were pretreated by adding different concentrations (10 nM, 50 nM, 100 nM, 200 nM or 1000 nM) of the test compounds for 2 hours; • 3. Added IFN-α (100 ng/mL) to stimulate cells for 6 hours; • 4. Removed the upper medium, add PBS (100 μL) and washed, then removed PBS; • 5. Added PLB lysis solution (50 μL) to each well, shook the well for 15 minutes; • 6. Transferred PLB lysis solution (30 μL) to a new 96-well whiteboard, added LAR II reagent (LAR II), then quickly read the 450 nm OD value with a plate washer; • 7. Added Stop & Glo reagent (30 μL), then read the 450 nm OD value using the plate washer. • 8. The final result was the OD value in step 6/OD value in step 7.

Compound	inhibition at 0.05 µM [%]	inhibition at 0.2 µM [%]	inhibition at 1 µM [%]
COc1c(Nc2cc(NC(=O)C3CC3)nnc2C(N)=O)ncnc1-c1cc(P(=O)(C2CC2)C2CC2)n(C)n1 [Compound A3, 6-(cyclopropanecarboxamido)-4-((6-(5-(dicyclopropylphosphoryl)-1-methyl-1H-pyrazol-3-yl)-5-methoxypyrimidin-4-yl)amino)pyridazine-3-carboxamide]	34	39	71
COc1c(Nc2cc(Nc3ccccn3)nnc2C(N)=O)cccc1-c1cc(P(=O)(C2CC2)C2CC2)n(C)n1 [Compound A4, 4-((3-(5-(dicyclopropylphosphoryl)-1-methyl-1H-pyrazol-3-yl)-2-methoxyphenyl)amino)-6-(pyridin-2-ylamino)pyridazine-3-carboxamide]	61	93	99
COc1ccc(Nc2cc(Nc3cccc(-c4cc(P(=O)(C5CC5)C5CC5)n(C)n4)c3OC)c(C(N)=O)nn2)nc1 [Compound A5]	91	97	99
CCP(=O)(CC)c1cc(-c2cccc(Nc3cc(NC(=O)C4CC4)nnc3C(N)=O)c2OC)nn1C [Compound A6, 6-(cyclopropanecarboxamido)-4-((3-(5-(diethylphosphoryl)-1-methyl-1H-pyrazol-3-yl)-2-methoxyphenyl)amino)pyridazine-3-carboxamide]	23	28	96
COc1c(Nc2cc(NC(=O)C3CC3)nnc2C(N)=O)cccc1-c1ncc(P(C)(C)=O)cn1 [Compound A7, 6-(cyclopropanecarboxamido)-4-((3-(5-(dimethylphosphoryl)pyrimidin-2-yl)-2-methoxyphenyl)amino)pyridazine-3-carboxamide]	18	25	64
COc1c(Nc2cc(N3CCCC3)nnc2C(N)=O)cccc1-c1cc(P(=O)(C2CC2)C2CC2)n(C)n1 [Compound A11, 4-((3-(5-(dicyclopropylphosphoryl)-1-methyl-1H-pyrazol-3-yl)-2-methoxyphenyl)amino)-6-(pyrrolidin-1-yl)pyridazine-3-carboxamide]	6	86	95
COc1c(-c2cc(P(=O)(C3CC3)C3CC3)n(C)n2)ccnc1Nc1cc(N)nnc1C(N)=O [Compound A13, 6-Amino-4-((4-(5-(dicyclopropylphosphoryl)-1-methyl-1H-pyrazol-3-yl)-3-methoxypyridin-2-yl)amino)pyridazine-3-carboxamide]	9	71	95
CCP(=O)(CC)c1cnc(-c2cccc(Nc3cc(NC(=O)C4CC4)nnc3C(N)=O)c2OC)nc1 [Compound A14]	–	23	76
COc1c(-c2cc(P(=O)(C3CC3)C3CC3)n(C)n2)ccnc1Nc1cc(NC(=O)C2CC2)nnc1C(N)=O [Compound A18, 6-(cyclopropanecarboxamido)-4-((4-(5-(dicyclopropylphosphoryl)-1-methyl-1H-pyrazol-3-yl)-3-methoxypyridin-2-yl)amino)pyridazine-3-carboxamide]	62	79	79
COc1c(Nc2nc(NC(=O)C3CC3)ncc2C(N)=O)cccc1-c1cc(P(=O)(C2CC2)C2CC2)n(C)n1 [Compound A19, 2-(cyclopropanecarboxamido)-4-((3-(5-(dicyclopropylphosphoryl)-1-methyl-1H-pyrazol-3-yl)-2-methoxyphenyl)amino)pyrimidine-5-carboxamide]	–	28	71
CNC(=O)Nc1cc(Nc2cccc(-c3cc(P(=O)(C4CC4)C4CC4)n(C)n3)c2OC)c(C(N)=O)nn1 [Compound A21]	16	39	74
COC(=O)Nc1cc(Nc2cccc(-c3cc(P(=O)(C4CC4)C4CC4)n(C)n3)c2OC)c(C(N)=O)nn1 [Compound A23]	–	38	85
[2H]C([2H])([2H])n1nc(-c2cccc(Nc3cc(NC(=O)C4CC4)nnc3C(N)=O)c2OC)cc1P(=O)(C1CC1)C1CC1 [Compound A24, 6-(cyclopropanecarboxamido)-4-((3-(5-(dicyclopropylphosphoryl)-1-(methyl-d3)-1H-pyrazol-3-yl)-2-methoxyphenyl)amino)pyridazine-3-carboxamide]	39	90	95
COc1c(Nc2cc(Nc3ccccn3)nnc2C(N)=O)cccc1-c1cc(P(C)(C)=O)n(C)n1 [Compound A26]	–	–	80
COc1ccc(Nc2cc(Nc3cccc(-c4cc(P(C)(C)=O)n(C)n4)c3OC)c(C(N)=O)nn2)nc1 [Compound A30]	14	58	90
COc1c(Nc2cc(Nc3ccc(C#N)cn3)nnc2C(N)=O)cccc1-c1cc(P(C)(C)=O)n(C)n1 [Compound A31]	9	54	75
COc1c(Nc2cc(Nc3ccc(F)cn3)nnc2C(N)=O)cccc1-c1cc(P(C)(C)=O)n(C)n1 [Compound A33]	45	62	81

Compound	inhibition at 0.05 µM [%]	inhibition at 0.2 µM [%]	inhibition at 1 µM [%]
COc1c(Nc2cc(Nc3cccc(C#N)n3)nnc2C(N)=O)cccc1-c1cc(P(=O)(C2CC2)C2CC2)n(C)n1 [Compound A34]	17	67	95
COc1c(Nc2cc(Nc3ncccn3)nnc2C(N)=O)cccc1-c1cc(P(=O)(C2CC2)C2CC2)n(C)n1 [Compound A38]	36	66	89
COc1c(Nc2cc(Nc3cnccn3)nnc2C(N)=O)cccc1-c1cc(P(=O)(C2CC2)C2CC2)n(C)n1 [Compound A39]	59	78	97
COc1c(Nc2cc(Nc3ccncn3)nnc2C(N)=O)cccc1-c1cc(P(=O)(C2CC2)C2CC2)n(C)n1 [Compound A40]	61	80	96
[2H]C([2H])([2H])n1ccc(Nc2cc(Nc3cccc(-c4cc(P(=O)(C5CC5)C5CC5)n(C)n4)c3OC)c(C(N)=O)nn2)n1 [Compound A41]	55	90	95
CCn1ccc(Nc2cc(Nc3cccc(-c4cc(P(=O)(C5CC5)C5CC5)n(C)n4)c3OC)c(C(N)=O)nn2)n1 [Compound A42]	76	90	92
COc1c(Nc2cc(Nc3ncccc3C#N)nnc2C(N)=O)cccc1-c1cc(P(=O)(C2CC2)C2CC2)n(C)n1 [Compound A43]	0	18	64
COc1c(Nc2cc(NC(=O)C3C[C@H]3F)nnc2C(N)=O)cccc1-c1cc(P(=O)(C2CC2)C2CC2)n(C)n1 (stereo partly drawn) [Compound A47]	8	19	62
COc1c(Nc2cc(NC(=O)C3CC3)nnc2C(N)=O)cccc1-c1cc(P(=O)(C2CC2)C2CC2)[nH]n1 [Compound A48, 6-(cyclopropanecarboxamido)-4-((3-(5-(dicyclopropylphosphoryl)-1H-pyrazol-3-yl)-2-methoxyphenyl)amino)pyridazine-3-carboxamide]	17	56	76
COc1c(Nc2cc(Nc3cc(C)ccn3)nnc2C(N)=O)cc(F)cc1-c1cc(P(C)(C)=O)n(C)n1 [Compound A51, 4-((3-(5-(dimethylphosphoryl)-1-methyl-1H-pyrazol-3-yl)-5-fluoro-2-methoxyphenyl)amino)-6-((4-methylpyridin-2-yl)amino)pyridazine-3-carboxamide]	55	82	86
COc1c(Nc2cc(Nc3cc(C)ccn3)nnc2C(N)=O)cccc1-c1cc(P(C)(C)=O)n(C2CC2)n1 [Compound A52]	–	9	63
COc1c(-c2cc(P(C)(C)=O)n(C)n2)ccnc1Nc1cc(Nc2cc(C)ccn2)nnc1C(N)=O [Compound A55, 4-((4-(5-(dimethylphosphoryl)-1-methyl-1H-pyrazol-3-yl)-3-methoxypyridin-2-yl)amino)-6-((4-methylpyridin-2-yl)amino)pyridazine-3-carboxamide]	34	63	90
[2H]C([2H])([2H])n1nc(-c2cc(F)cc(Nc3cc(Nc4cc(C)ccn4)nnc3C(N)=O)c2OC)cc1P(C)(C)=O [Compound A56]	31	70	95
COc1c(Nc2cc(Nc3cc(C)ccn3)nnc2C(N)=O)cncc1-c1cc(P(C)(C)=O)n(C2CC2)n1 [Compound A58]	–	–	86
[2H]C([2H])([2H])n1nc(-c2cccc(Nc3cc(Nc4cnccn4)nnc3C(N)=O)c2OC)cc1P(=O)(C1CC1)C1CC1 [Compound A59]	–	–	86
COc1c(-c2cc(P(C)(C)=O)n(C3CC3)n2)ccnc1Nc1cc(Nc2cc(C)ccn2)nnc1C(N)=O [Compound A60]	–	–	66
